The values below are quoted from earlier work in patent publication US20080247966A1, “Compositions and Methods to Counteract Oral Malodour” (GIVAUDAN SA, priority 2005, published 2008).

The structures appear in SMILES notation.

The series deals with microorganisms such as yeasts. The settings on record: oral care compositions with C1-C4 lower alcohols, WO 99/51093.

Take `CCCCCCCCO` [octanol, octan-1-ol]: the “effect on microorganisms such as yeasts” value is “no effect”.
